Patent US20100029542A1, “PROTEIN STERILISATION BY RADIATION AND ADDITION OF A STABILISING COMPOSITION” (priority 2006, published 2010)

Columns and labels:
[1] = molecular target: T1, human growth hormone (Homo sapiens, UniProt P01241); assay: Recovery of structural integrity of human growth hormone in dry formulations following gamma irradiation (HPLC); assay type: physicochemical; details: structural integrity by HPLC, human growth hormone 2.5 mg mL^−1 prior to drying, 25-40 kGy
T1 construct: purchased National Institute of Biological Standards and Control; further samples on prescription from a GP surgery
Procedure: In each example, an aqueous solution of a protein was prepared with selected additives in an Eppendorf tube or in a glass vial. Water was removed from the formulation by drying under a stream of nitrogen at 30° C. and subsequent incubation at atmospheric pressure in the presence of a dessicant. The Eppendorf tubes or the glass vials were sealed and delivered to an industrial sterilisation service for gamma irradiation, with a dose range typical for sterile medical products. The gamma-irradiated samples were reconstituted on their return and analysed for protein activity or structural integrity. The results were compared with those achieved using control (i.e. non-irradiated) samples.
The dry samples (approx. 20 μg in an Eppendorf tube) were gamma-irradiated by an industry-standard commercial sterilising service provided by Isotron PLC (Swindon, Wilts, UK), using a Cobalt 60 gamma source at ambient temperature. The radiation dose was in the range of 25-40 kGy.
Mobile phase was prepared by mixing 71 parts (by volume) of a solution of TRIS (0.05 M, in water adjusted with hydrochloric acid to a pH of 7.5) and 29 parts (by volume) of n-propylalcohol. The mobile phase was filtered prior to its use. The liquid chromatograph (Agilent 1100 series) was equipped with a 214 nm detector and a 4.6×250 mm column (Phenomenex 00G-4167-E0) packed with butylsilyl silica gel with a granulometry of 5 μm and a porosity of 30 nm, maintained at 45° C. The flow rate was maintained at 0.5 mL min^−1. 15 μL of aqueous samples of human growth hormone (typically 1-2.5 mg mL^−1) were injected. Results were expressed as % of peak area corresponding to the gamma irradiated sample with respect to that measured in non-irradiated sample.

[2] = molecular target: T1, human growth hormone; assay: as above; assay type: physicochemical; details: Table 4, prior-art antioxidants; structural integrity by HPLC; human growth hormone 2.5 mg mL^−1 prior to drying; dry; 25-40 kGy, ambient temperature

Measured: Structural integrity remaining after gamma-irradiation (HPLC)

T1 sequence (P01241 27-217): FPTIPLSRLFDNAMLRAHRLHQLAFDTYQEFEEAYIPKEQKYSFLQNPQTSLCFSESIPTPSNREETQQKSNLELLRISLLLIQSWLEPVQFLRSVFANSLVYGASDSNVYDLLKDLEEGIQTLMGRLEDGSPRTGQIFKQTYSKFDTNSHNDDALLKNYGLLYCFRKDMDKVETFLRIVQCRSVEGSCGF

CSCC[C@H](N)C(=O)O [Methionine]
69.7%: [1]; Table 4, prior-art antioxidants, ambient temperature | [1]; Table 7, singlet oxygen scavengers | [1]; Table 11, superoxide scavengers | [2]
